{"source": "patent US10160780B2", "about": "“Compound extracted from husk and fruit stem of Xanthoceras sobifolia and its extracting method and use thereof” (priority 2004, dated 2018)", "key": {"mice [1]": {"system": "mice", "assay": "Y maze test, memory retrieval impairment of mice induced by scopolamine", "assay_type": "in vivo", "conditions": "scopolamine 2.0 mg/kg, then injection 6 mg/kg, Y maze after 20 minutes", "method": "Mice were trained based on the stochastic three arms Y maze test, to screen those who had less than 30 errors of alternation before they continuously made correct choices for 10 times. After relaxed for 24 hours, the selected ones were randomized into two groups and for all of them scopolamine was injected into celiac at the ratio of 2.0 mg/kg mice weight to cause their learning and memory impairment. After 15 minutes, the mice in the treatment group were given an injection of total dose of Xanthoceraside at ratio of 6 mg/kg mice weight, while those in the control group were given an injection of the same amount of normal saline. After 20 minutes, they were arranged respectively into Y maze and the number of incorrect alternations before they made correct choices continuously for 10 times."}, "[2]": {"system": "PC-3MIE8 human prostate cancer", "assay": "anti-tumor activity in vitro, SRB", "assay_type": "cell-based", "conditions": "PC-3MIE8, SRB", "description": "(§1) Take Xanthoceraside derived from the example 3 to do a test on tumor cell in vitro."}, "[3]": {"system": "Bel-7402 human liver cancer", "assay": "anti-tumor activity in vitro, SRB", "assay_type": "cell-based", "conditions": "Bel-7402, SRB", "description": "as §1"}, "[4]": {"system": "BGC-823 human gastric cancer", "assay": "anti-tumor activity in vitro, SRB", "assay_type": "cell-based", "conditions": "BGC-823, SRB", "description": "as §1"}, "[5]": {"system": "MDA-MB-435 human breast cancer", "assay": "anti-tumor activity in vitro, SRB", "assay_type": "cell-based", "conditions": "MDA-MB-435, SRB", "description": "as §1"}, "mice [6]": {"system": "mice", "assay": "regular static hypoxia tolerance in an isolated environment (death time)", "assay_type": "in vivo", "conditions": "oral 2 mg twice a day for 6 days", "method": "The above obtained Xanthoceraside was for the test of regular static hypoxia tolerance in an isolated environment to observe the effect of Xanthoceraside on death time of animals.\nThe test consisted of two sections. Each section was divided into two groups: control and treatment. There were three measurements to calculate death time of the mice. Those in treatment group took oral dosing of 2 mg of Xanthoceraside twice a day for 6 days. The three parameters are: • The average death time of whole group (xt); • The super average death time (xp): based on the average death time of the control group (xc), calculate the death time (xp), which is greater than the control group (xc), and calculate the mean. • The delayed death time (xp-xc): the super average death time (xp) minus the control group (xc) and calculated the mean."}, "mice [7]": {"system": "mice", "assay": "Y maze test of learning and memory ability of mice", "assay_type": "in vivo", "conditions": "fed 9 mg/kg, Y maze after 40 minutes, incorrect alternations before 10 continuous correct choices", "method": "20 female and male mice weighted 18˜23 g were selected and divided evenly into two groups. The treatment group was fed with total dose of Xanthoceraside at the ratio of 9 mg/kg mice weight, and the control group was fed with the same amount of normal saline. After 40 minutes, they were put into Y maze respectively for performance observation. The number of incorrect alternations for a mice were recorded before it made correct choices continuously for 10 times. If errors more than 30, cutting the value to 30."}, "Hela cervical cancer": {"system": "Hela cervical cancer", "assay": "anti-tumor activity in vitro, SRB", "assay_type": "cell-based, human", "description": "as §1"}, "HL-60 human leukemia": {"system": "HL-60 human leukemia", "assay": "anti-tumor activity in vitro, MTT", "assay_type": "cell-based", "description": "as §1"}}, "note": "Where two headings read alike, the source gives them in different places."}
{"smiles": "C/C=C(/C)C(=O)O[C@H]1[C@H](OC(=O)/C(C)=C\\C)C2(CO)C(CC1(C)C)C1=CCC3[C@@]4(C)CC[C@H](OC5OC(C(=O)O)C(O)C(OC6OC(CO)C(O)C6O)C5OC5OC(CO)C(O)C(O)C5O)C(C)(C)C4CC[C@@]3(C)[C@]1(C)[C@@H](O)[C@H]2O", "note": "(stereo partly drawn) [Xanthoceraside, 3-O-(α-L-arabinofuranosyl(1→3)-β-D-galactopyranosyl(1→2))-β-D-glucuronopyranosyl-21,22-diangeloyl-R1-barrigenol]", "values": [{"measurement": "Error frequency (X ± SD)", "setting": "mice [1]", "value": "4.0 ± 1.5"}, {"measurement": "IC50", "setting": "[2]; Homo sapiens", "value": 41, "unit": "µg/mL"}, {"measurement": "Inhibition ratio (%)", "setting": "[2]; 0.5 μg/ml", "value": "−13.90", "unit": "%"}, {"measurement": "Inhibition ratio (%)", "setting": "[2]; 5.0 μg/ml", "value": "−7.63", "unit": "%"}, {"measurement": "Inhibition ratio (%)", "setting": "[2]; 50.0 μg/ml", "value": 92.03, "unit": "%"}, {"measurement": "Inhibition ratio (%)", "setting": "[3]; 0.5 μg/ml", "value": "−9.78", "unit": "%"}, {"measurement": "Inhibition ratio (%)", "setting": "[3]; 5.0 μg/ml", "value": "−1.24", "unit": "%"}, {"measurement": "Inhibition ratio (%)", "setting": "[3]; 50.0 μg/ml", "value": 92.96, "unit": "%"}, {"measurement": "IC50", "setting": "[3]; Homo sapiens", "value": 39.3, "unit": "µg/mL"}, {"measurement": "Inhibition ratio (%)", "setting": "[4]; 0.5 μg/ml", "value": "−11.71", "unit": "%"}, {"measurement": "Inhibition ratio (%)", "setting": "[4]; 5.0 μg/ml", "value": "−5.92", "unit": "%"}, {"measurement": "Inhibition ratio (%)", "setting": "[4]; 50.0 μg/ml", "value": 92.45, "unit": "%"}, {"measurement": "IC50", "setting": "[4]; Homo sapiens", "value": 40.2, "unit": "µg/mL"}, {"measurement": "IC50", "setting": "[5]; Homo sapiens", "value": 18.6, "unit": "µg/mL"}, {"measurement": "Inhibition ratio (%)", "setting": "[5]; 0.5 μg/ml", "value": "−4.50", "unit": "%"}, {"measurement": "Inhibition ratio (%)", "setting": "[5]; 5.0 μg/ml", "value": 2.92, "unit": "%"}, {"measurement": "Inhibition ratio (%)", "setting": "[5]; 50.0 μg/ml", "value": 93.14, "unit": "%"}, {"measurement": "xp − xc, delayed death time", "setting": "mice [6]; First section", "value": "14.59 ± 14.83(17) min"}, {"measurement": "xp, super average death time", "setting": "mice [6]; First section", "value": "56.51 ± 14.59(17) min"}, {"measurement": "xt, average death time of whole group", "setting": "mice [6]; First section", "value": "41.84 ± 15.35(30) min"}, {"measurement": "xp − xc, delayed death time", "setting": "mice [6]; Second section", "value": "8.40 ± 4.94(33) min"}, {"measurement": "xp, super average death time", "setting": "mice [6]; Second section", "value": "33.40 ± 4.94(33) min"}, {"measurement": "xt, average death time of whole group", "setting": "mice [6]; Second section", "value": "31.55 ± 6.68(41) min"}, {"measurement": "Error frequency (X ± SD)", "setting": "mice [7]", "value": "6.9 ± 2.3"}, {"measurement": "Inhibition ratio (%)", "setting": "Hela cervical cancer; 0.5 μg/ml", "value": "−12.72", "unit": "%"}, {"measurement": "Inhibition ratio (%)", "setting": "Hela cervical cancer; 5.0 μg/ml", "value": "−4.05", "unit": "%"}, {"measurement": "Inhibition ratio (%)", "setting": "Hela cervical cancer; 50.0 μg/ml", "value": 95.49, "unit": "%"}, {"measurement": "IC50", "setting": "Hela cervical cancer; Homo sapiens", "value": 34.2, "unit": "µg/mL"}, {"measurement": "IC50", "setting": "HL-60 human leukemia; HL-60, MTT", "value": 41.29, "unit": "µg/mL"}, {"measurement": "Inhibition ratio (%)", "setting": "HL-60 human leukemia; HL-60, MTT, 0.5 μg/ml", "value": 9.34, "unit": "%"}, {"measurement": "Inhibition ratio (%)", "setting": "HL-60 human leukemia; HL-60, MTT, 5.0 μg/ml", "value": 17.68, "unit": "%"}, {"measurement": "Inhibition ratio (%)", "setting": "HL-60 human leukemia; HL-60, MTT, 50.0 μg/ml", "value": 56.90, "unit": "%"}, {"measurement": "IC50", "setting": "HL-60 human leukemia; Homo sapiens, HL-60, HL-60, MTT, read-out: IC50", "value": 41.9, "unit": "µg/mL"}]}
